Experimental findings from patent publication US20190322676A1, “CERAMIDE GALACTOSYLTRANSFERASE INHIBITORS FOR THE TREATMENT OF DISEASE” (BioMarin Pharmaceutical Inc., priority 2016, published 2019) are described below.

Structures are written as SMILES. Structures can show the parent of a compound that is named as a salt.

The target in this test is T1, human CGT (ceramide galactosyltransferase), CHO/CGT lysate (Homo sapiens, UniProt Q16880).
T1 construct: Full-length human CGT cDNA was cloned into the BamH1/Xho1 site of pcDNA3.1 (+); expressed in transfected cells; host or cells: Chinese hamster ovary (CHO) cells; lysate prepared with M-PER
T1 sequence (Q16880 21-541): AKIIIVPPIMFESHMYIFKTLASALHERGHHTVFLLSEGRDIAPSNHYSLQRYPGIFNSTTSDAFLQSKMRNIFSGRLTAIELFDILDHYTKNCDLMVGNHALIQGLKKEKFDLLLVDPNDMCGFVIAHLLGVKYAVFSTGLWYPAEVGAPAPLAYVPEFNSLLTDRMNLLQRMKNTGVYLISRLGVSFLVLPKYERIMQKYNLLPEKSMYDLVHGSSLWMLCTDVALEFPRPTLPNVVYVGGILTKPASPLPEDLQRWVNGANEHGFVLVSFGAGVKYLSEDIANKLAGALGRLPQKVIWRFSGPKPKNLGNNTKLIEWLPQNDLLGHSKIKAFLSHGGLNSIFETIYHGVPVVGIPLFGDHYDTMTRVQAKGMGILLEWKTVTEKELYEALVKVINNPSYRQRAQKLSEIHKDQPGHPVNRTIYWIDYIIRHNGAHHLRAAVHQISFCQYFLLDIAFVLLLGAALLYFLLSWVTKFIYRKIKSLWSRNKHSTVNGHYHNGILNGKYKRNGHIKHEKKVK
Nature of the test: CGT enzyme assay, RapidFire/MS/MS readout with 0.01% Tween added (Table 1 ranges with two asterisks **). The settings on record: CGT enzymatic assay; range with two asterisks (**): RapidFire/MS/MS method with 0.01% Tween added. The class given is biochemical. The procedure, abridged:
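Lysate (4 μg) of CHO cells transfected with full-length human CGT incubated 1 h at 37 °C with compound (0.001–50 μM) in pH 7.2 HEPES buffer with 10 μM C6-NBD-dihydro-ceramide, 17.5 μM UDP-galactose, Mg2+/Mn2+, CHAPS, BSA, 0.5% DMSO; ** set also contained 0.01% Tween 80. Product quantified by RapidFire/MS/MS, normalized to internal standard; IC50 from sigmoidal variable-slope fits.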

`O=C([C@H](NS(=O)(=O)c1ccc2cc(OC3CCCC3)ccc2c1)C(F)(F)c1ccc(-c2ccc(Cl)cc2)cc1)N1Cc2cn[nH]c2C1` [Compound 176-2, (S)—N-(1-(4′-chloro-[1,1′-biphenyl]-4-yl)-3-(4,6-dihydropyrrolo[3,4-c]pyrazol-5(1H)-yl)-1,1-difluoro-3-oxopropan-2-yl)-6-(cyclopentyloxy)naphthalene-2-sulfonamide]: the concentration for half-maximal inhibition (IC50) is 30 to 100 µM.

Consider `NC1CC2CCC(C1)N2C(=O)[C@@H](NS(=O)(=O)c1ccc2cc(OC3CC3)ccc2c1)C(F)(F)c1ccc(Br)cc1` (stereo partly drawn) [Compound 177-1, N-((2R)-3-(3-amino-8-azabicyclo[3.2.1]octan-8-yl)-1-(4-bromophenyl)-1,1-difluoro-3-oxopropan-2-yl)-6-cyclopropoxynaphthalene-2-sulfonamide trifluoroacetate], for which the 50% inhibitory concentration (IC50) was in the range of 1 to 10 µM. Then `NC1CC2CCC(C1)N2C(=O)[C@H](NS(=O)(=O)c1ccc2cc(OC3CC3)ccc2c1)C(F)(F)c1ccc(Br)cc1` (stereo partly drawn) [Compound 177-2, N-((2S)-3-(3-amino-8-azabicyclo[3.2.1]octan-8-yl)-1-(4-bromophenyl)-1,1-difluoro-3-oxopropan-2-yl)-6-cyclopropoxynaphthalene-2-sulfonamide trifluoroacetate], with 10 to 30 µM; and `N[C@H]1CCN(C(=O)[C@@H](NS(=O)(=O)c2ccc3cc(OC4CCCC4)ccc3c2)C(F)(F)c2ccc(-c3ccc(Cl)cc3)cc2)C[C@@H]1F` [Compound 178-1, N—((R)-3-((3 S,4S)-4-amino-3-fluoropiperidin-1-yl)-1-(4′-chloro-[1,1′-biphenyl]-4-yl)-1,1-difluoro-3-oxopropan-2-yl)-6-(cyclopentyloxy)naphthalene-2-sulfonamide], with 1 to 10 µM; and `N[C@H]1CCN(C(=O)[C@H](NS(=O)(=O)c2ccc3cc(OC4CCCC4)ccc3c2)C(F)(F)c2ccc(-c3ccc(Cl)cc3)cc2)C[C@@H]1F` [Compound 178-2, N—((S)-3-((3 S,4S)-4-amino-3-fluoropiperidin-1-yl)-1-(4′-chloro-[1,1′-biphenyl]-4-yl)-1,1-difluoro-3-oxopropan-2-yl)-6-(cyclopentyloxy) naphthalene-2-sulfonamide], with 1 to 10 µM.

Regarding `N[C@@H]1CCN(C(=O)[C@H](NS(=O)(=O)c2ccc3cc(OC4CCCC4)ccc3c2)C(F)(F)c2ccc(-c3ccc(Cl)cc3)cc2)C[C@H]1F` [Compound 178-3, N—((S)-3-((3R,4R)-4-amino-3-fluoropiperidin-1-yl)-1-(4′-chloro-[1,1′-biphenyl]-4-yl)-1,1-difluoro-3-oxopropan-2-yl)-6-(cyclopentyloxy)naphthalene-2-sulfonamide], the IC50 was in the range of 30 to 100 µM. Then `O=C([C@@H](NS(=O)(=O)c1ccc(OCC2CCCCC2)cc1)C(F)(F)c1ccc(-c2ccc(Cl)cc2)cc1)N1C[C@H]2CNC[C@H]2C1` [Compound 179-1, N—((R)-1-(4′-chloro-[1,1′-biphenyl]-4-yl)-1,1-difluoro-3-((3aR,6aS)-hexahydropyrrolo[3,4-c]pyrrol-2(1H)-yl)-3-oxopropan-2-yl)-4-(cyclohexylmethoxy) benzenesulfonamide trifluoroacetate], with 1 to 10 µM; and `O=C([C@H](NS(=O)(=O)c1ccc(OCC2CCCCC2)cc1)C(F)(F)c1ccc(-c2ccc(Cl)cc2)cc1)N1C[C@H]2CNC[C@H]2C1` [Compound 179-2, N—((S)-1-(4′-chloro-[1,1′-biphenyl]-4-yl)-1,1-difluoro-3-((3aR,6aS)-hexahydropyrrolo[3,4-c]pyrrol-2(1H)-yl)-3-oxopropan-2-yl)-4-(cyclohexylmethoxy)benzenesulfonamide trifluoroacetate], with 30 to 100 µM. The figure for `N[C@H]1CC2CCC1N2C(=O)[C@@H](NS(=O)(=O)c1ccc2cc(OC3CCCC3)ccc2c1)C(F)(F)c1ccc(-c2ccc(Cl)cc2)cc1` (stereo partly drawn) [Compound 180-1, N-((2R)-3-((2S)-2-amino-7-azabicyclo[2.2.1]heptan-7-yl)-1-(4′-chloro-[1,1′-biphenyl]-4-yl)-1,1-difluoro-3-oxopropan-2-yl)-6-(cyclopentyloxy)naphthalene-2-sulfonamide] is 1 to 10 µM; for `N[C@H]1CC2CCC1N2C(=O)[C@H](NS(=O)(=O)c1ccc2cc(OC3CCCC3)ccc2c1)C(F)(F)c1ccc(-c2ccc(Cl)cc2)cc1` (stereo partly drawn) [Compound 180-2, N-((2S)-3-((2S)-2-amino-7-azabicyclo[2.2.1]heptan-7-yl)-1-(4′-chloro-[1,1′-biphenyl]-4-yl)-1,1-difluoro-3-oxopropan-2-yl)-6-(cyclopentyloxy)naphthalene-2-sulfonamide] it is 10 to 30 µM; for `N[C@@H]1CC2CCC1N2C(=O)[C@H](NS(=O)(=O)c1ccc2cc(OC3CCCC3)ccc2c1)C(F)(F)c1ccc(-c2ccc(Cl)cc2)cc1` (stereo partly drawn) [Compound 180-3, N-((2S)-3-((2R)-2-amino-7-azabicyclo[2.2.1]heptan-7-yl)-1-(4′-chloro-[1,1′-biphenyl]-4-yl)-1,1-difluoro-3-oxopropan-2-yl)-6-(cyclopentyloxy)naphthalene-2-sulfonamide] it is 1 to 10 µM. Then `N[C@@H]1CC2CCC1N2C(=O)[C@@H](NS(=O)(=O)c1ccc2cc(OC3CCCC3)ccc2c1)C(F)(F)c1ccc(-c2ccc(Cl)cc2)cc1` (some centres unmarked) [Compound 180-4], with 1 to 10 µM; and `NC1CCN(C(=O)[C@@H](NS(=O)(=O)c2ccc(OCC3CCCCC3)cc2)C(F)(F)c2cccc(-c3ccc(Cl)cc3)c2)CC1` [Compound 181-1, (R)—N-(3-(4-aminopiperidin-1-yl)-1-(4′-chloro-[1,1′-biphenyl]-3-yl)-1,1-difluoro-3-oxopropan-2-yl)-4-(cyclohexylmethoxy)benzenesulfonamide trifluoroacetate], with 1 to 10 µM; and `NC1CCN(C(=O)[C@H](NS(=O)(=O)c2ccc(OCC3CCCCC3)cc2)C(F)(F)c2cccc(-c3ccc(Cl)cc3)c2)CC1` [Compound 181-2, (S)—N-(3-(4-aminopiperidin-1-yl)-1-(4′-chloro-[1,1′-biphenyl]-3-yl)-1,1-difluoro-3-oxopropan-2-yl)-4-(cyclohexylmethoxy) benzenesulfonamide trifluoroacetate], with 1 to 10 µM. Compound `NC1CCN(C(=O)[C@@H](NS(=O)(=O)c2ccc3cc(OC4CCCC4)ccc3c2)C(F)(F)c2ccc(C3(C(F)(F)F)CC3)cc2)CC1` [Compound 182-1, (R)—N-(3-(4-aminopiperidin-1-yl)-1,1-difluoro-3-oxo-1-(4-(1-(trifluoromethyl)cyclopropyl)phenyl)propan-2-yl)-6-(cyclopentyloxy)naphthalene-2-sulfonamide trifluoroacetate] showed an IC50 of under 1 µM. The figure for `NC1CCN(C(=O)[C@H](NS(=O)(=O)c2ccc3cc(OC4CCCC4)ccc3c2)C(F)(F)c2ccc(C3(C(F)(F)F)CC3)cc2)CC1` [Compound 182-2, (S)—N-(3-(4-aminopiperidin-1-yl)-1,1-difluoro-3-oxo-1-(4-(1-(trifluoromethyl)cyclopropyl)phenyl)propan-2-yl)-6-(cyclopentyloxy) naphthalene-2-sulfonamide trifluoroacetate] is 10 to 30 µM; for `N[C@H]1[C@@H]2CC[C@H]1CN(C(=O)[C@@H](NS(=O)(=O)c1ccc(OCC3CCCCC3)cc1)C(F)(F)c1ccc(-c3ccc(Cl)cc3)cc1)C2` [Compound 183-1, N-((R)-3-((1R,5S,8R)-8-amino-3-azabicyclo[3.2.1]octan-3-yl)-1-(4′-chloro-[1,1′-biphenyl]-4-yl)-1,1-difluoro-3-oxopropan-2-yl)-4-(cyclohexylmethoxy)benzenesulfonamide] it is under 1 µM; for `NC1C2CCC1CN(C(=O)[C@H](NS(=O)(=O)c1ccc(OCC3CCCCC3)cc1)C(F)(F)c1ccc(-c3ccc(Cl)cc3)cc1)C2` (stereo partly drawn) [Compound 183-2, N-((S)-3-((1R,5S,8S)-8-amino-3-azabicyclo[3.2.1]octan-3-yl)-1-(4′-chloro-[1,1′-biphenyl]-4-yl)-1,1-difluoro-3-oxopropan-2-yl)-4-(cyclohexylmethoxy)benzenesulfonamide] it is 1 to 10 µM. As to `N[C@H]1[C@@H]2CC[C@H]1CN(C(=O)[C@@H](NS(=O)(=O)c1ccc3cc(OC4CCCC4)ccc3c1)C(F)(F)c1ccc(-c3ccc(Cl)cc3)cc1)C2` [Compound 184-1, N-((R)-3-((1R,5S,8R)-8-amino-3-azabicyclo[3.2.1]octan-3-yl)-1-(4′-chloro-[1,1′-biphenyl]-4-yl)-1,1-difluoro-3-oxopropan-2-yl)-6-(cyclopentyloxy)naphthalene-2-sulfonamide], the half-maximal inhibitory concentration (IC50) lay within 1 to 10 µM.

`N[C@H]1[C@@H]2CC[C@H]1CN(C(=O)[C@H](NS(=O)(=O)c1ccc3cc(OC4CCCC4)ccc3c1)C(F)(F)c1ccc(-c3ccc(Cl)cc3)cc1)C2` [Compound 184-2, N-((S)-3-((1R,5S,8S)-8-amino-3-azabicyclo[3.2.1]octan-3-yl)-1-(4′-chloro-[1,1′-biphenyl]-4-yl)-1,1-difluoro-3-oxopropan-2-yl)-6-(cyclopentyloxy)naphthalene-2-sulfonamide] returned an IC50 of 1 to 10 µM.
